Source: patent publication US20030125323A1, “Use of selective potassium channel openers” (priority 2001, published 2003)

Legend:
[1] = system: obese female hyperinsulinemic nondiabetic Zucker rats; test: oral glucose tolerance test after 35 days treatment of obese Zucker rats; type: in vivo, rat; conditions: FIG. 1
Procedure: 14 obese female hyperinsulinemic nondiabetic Zucker rats were treated with the test compound 6-chloro-3-(1-methylcylodopropyl)amino-4H-thieno[3,2-e]-1,2,4-thiadiazine 1,1-dioxide and 14 were treated with vehicle for 35 days. After treatment, oral glucose tolerance was tested and found to be improved in animals treated with 6-chloro-3-(1-methylcylodopropyl)amino-4H-thieno[3,2-e]-1,2,4-thiadiazine 1,1-dioxide and the improvement was associated with decreased hyperinsulinemia.

[2] = system: KATP-channels on pancreatic β-cells; conditions: by activation of KATP-channels on pancreatic β-cells; Pirotte et al. 1993, 1994; cited from earlier work
[3] = system: women with Polycystic Ovary Syndrome (PCOS); conditions: Nestler et al. 1989; cited from earlier work

Row | SMILES | hyperinsulinemia ([1]; associated with the improved glucose tolerance) | oral glucose tolerance ([1]; compared with vehicle) | insulin release [2] | concentrations of serum testosterone [3] | glycaemia (adverse effect due to the reduction in insulin) [3] | hyperinsulinaemia [3]
1 | CC1(NC2=NS(=O)(=O)c3sc(Cl)cc3N2)CC1 [6-chloro-3-(1-methylcylodopropyl)amino-4H-thieno[3,2-e]-1,2,4-thiadiazine 1,1-dioxide] | decreased | improved |  |  |  | 
2 | CC1=Nc2ccc(Cl)cc2S(=O)(=O)N1 [diazoxide, 7-chloro-3-methyl-2H-1,2,4-benzothiadiazine 1,1-dioxide] |  |  | inhibit | reduce | significantly hyperglycemic | reduce
